# Measurements: patent US4816448A, “Thermal isomer of difficidin and thermal isomer of oxydifficidin antibacterials” (Merck & Co., Inc., priority 1987, dated 1989)
# Tests used:
# S. aureus = test: MIC, standard in vitro assay (Table I); type: cell-based, Staphylococcus aureus; settings: in most cases
# Excerpt: (§1) Using standard in vitro assay techniques, minimal inhibitory concentrations (MIC) have been determined for the thermal isomer of difficidin and the thermal isomer of oxydifficidin against a number of bacteria.
# Proteus = test: Antibacterial activity, relative potency; type: cell-based; settings: in most cases
# Excerpt: as §1
# [1] = Isomerization of difficidin at 60° C., HPLC (Example IV); type: physicochemical; settings: tetrahydrofuran
# Description: Difficidin is stored as the potassium salt at pH7 in aqueous methanol solution at -80° C. A 0.67 ml aliquot containing 400 mcg of difficidin was evaporated to an oil and taken up in 0.2 ml of tetrahydrofuran. The sample was heated at 60° C. for 3 days.
# P. aeruginosa = test: MIC, standard in vitro assay (Table I); type: cell-based, Pseudomonas aeruginosa; settings: Ps. aeruginosa; in most cases
# Excerpt: as §1
# anaerobic bacteria = test: Antibacterial activity against anaerobic bacteria; type: cell-based
# aerobic microorganisms = test: Antibacterial activity against aerobic microorganisms; type: cell-based; settings: aerobic microorganisms such as Pseudomonas aeruginosa and Staphylococcus aureus
# Excerpt: as §1
# Salmonella typhimurium = test: MIC, standard in vitro assay (Table I); type: cell-based; settings: in most cases
# Excerpt: as §1
# Serratia marcescens = test: MIC, standard in vitro assay (Table I); type: cell-based; settings: in most cases
# Excerpt: as §1
# [2] = Thermal isomerization of difficidin and oxydifficidin, equilibrium; type: physicochemical; settings: for time to reach equilibrium with its thermal isomer / converted to thermal isomer at equilibrium: 60° C.; for converted to thermal isomer at equilibrium: suitable solvent such as water, alcohol or ethyl acetate
# Description: Alternatively, the thermal isomers of the subject invention can be prepared by converting difficidin and oxydifficidin to the thermal isomer of difficidin and thermal isomer of oxydifficidin, respectively. Difficidin and oxydifficidin can be prepared and purified as described in U.S. Pat. No. 4,545,991. The thermal isomers can be prepared by thermally heating (to about 60° C.) the difficidin and oxydifficidin in a suitable solvent system such as water, alcohol or ethyl acetate. At 60° C., it takes about 24 hours for difficidin and oxydifficidin to reach equilibrium with its thermal isomer. At equilibrium, about 25% of the difficidin has converted to the thermal isomer and about 66% of the oxydifficidin has converted to its thermal isomer. […] The thermal isomer can then be separated from the equilibrium mixture by standard chromatographic techniques.
# [3] = Isomerization of oxydifficidin at 60° C., HPLC (Example V); type: physicochemical; settings: under argon, tetrahydrofuran
# Description: Pure oxydifficidin was stored as the potassium salt, pH7, in aqueous methanol solution at -80° C. A 28 ml aliquot, containing 95 mg of antibiotic, was treated with 2 mg. of 2,6-di-t-butyl-phenol and evaporated to 3-4 ml. The concentrate was diluted with tetrahydrofuran to a final volume of 44 ml. The solution was heated under argon at 60° C.
Compound,effectiveness relative to thermal isomer of oxydifficidin (S. aureus),effectiveness relative to thermal isomer of oxydifficidin (Proteus),Composition ([1]; 0 days),Composition ([1]; 3 days),effectiveness relative to thermal isomer of oxydifficidin (P. aeruginosa),activity against anaerobic bacteria (anaerobic bacteria),potency against aerobic microorganisms vs thermal isomer of oxydifficidin (aerobic microorganisms),effectiveness relative to thermal isomer of oxydifficidin (Salmonella typhimurium),effectiveness relative to thermal isomer of oxydifficidin (Serratia marcescens),time to reach equilibrium with its thermal isomer [2],converted to thermal isomer at equilibrium [2],isomerization at room temperature [2],"Composition ([3]; 17 hrs., HPLC)","Composition ([3]; 24 hrs., HPLC)","Composition ([3]; 41 hrs., HPLC)","Composition ([3]; time 0, HPLC)"
"C=C/C=C(\C)CCC1C/C=C\C=C(\C)C(OP(=O)(O)O)CC/C=C/C=C\C=C/CCC(C)C(=C)CC(=O)O1 (stereo not drawn) [thermal isomer of difficidin, (Z,Z,E,Z,Z,)-16-dihydroxyphosphinoxy-5,7-dimethyl-4-methylene-22-((E)-3-methyl-3,5-hexadienyl)oxacyclo-docosa-8,10,12,17,19-pentaen-2-one]",four times more effective,four times more effective,2%,24%,four times more effective,active against a wide spectrum of anaerobic bacteria,more potent than the thermal isomer of oxydifficidin,four times more effective,four times more effective,–,–,–,–,–,–,–
difficidin,–,–,98%,76%,–,–,–,–,–,about 24 hours,about 25%,some isomerization takes place,–,–,–,–
oxydifficidin [reference compound],–,–,–,–,–,–,–,–,–,about 24 hours,about 66%,some isomerization takes place,39%,36%,34%,98%
